Tests used:
human neutrophils [1] = assay: Human neutrophil apoptosis (annexin-V-FITC binding, confirmed by morphology); assay type: cell-based; details: for rate of apoptosis, time course study: after 8 h, NG75 10 μM, HD 10 μM; for rate of constitutive apoptosis: increasing concentrations, over 20 h; for rates of apoptosis assessed by annexin V binding: stereoisomers at 20 μM, after 6 h, mean±s.e.m., n=4 donors, control 12.4±0.4%
[2] = tested on: carrageenan-induced pleural inflammation; assay: Carrageenan-induced pleurisy; assay type: in vivo, C57BL/6J mice
Mcl-1 = Mcl-1 protein expression in neutrophils (western blot); assay type: cell-based, human
caspase-3 = assay: Caspase-3 cleavage in neutrophils (western blot); details: 20 μM, 4 h
tumor = details: cited from earlier work
serum induced arthritis = assay: Passively-induced (K/BxN serum) arthritis; assay type: in vivo, C57BL/6J mice; details: 10 mg/kg i.p. on days 3-19 every second day
Description: Sera (100 μl) extracted from 60 day old arthritic K/B×N mice was injected intra-peritoneally into 6-8 week old female C57BL/6J mice (B&K, Hull, UK). Arthritis was scored by clinical examination. Briefly, a score of 1 was given for erythema alone or swelling of 1 digit. A score of 2 resulted from erythema plus swelling of the tarsal joints or swelling of the hock or wrist joint alone. A maximum score of 3 was achieved when swelling was present in both tarsal and hock joints, or both wrist and digits, or more than 2 digits and the tarsal joints. The score for each limb was added giving a maximum score of 12 and the mean score reflects the total score divided by the number of recipient mice per group.
Mice (n=10 in each group) were injected twice (days 0 and 3) with K/B×N serum derived from arthritic (day 60) K/B×N transgenic mice. Clinical scores were assessed on the days indicated.

human neutrophils [3] = assay: Reversal of dbcAMP, GMCSF and LPS mediated survival of neutrophils; assay type: cell-based; details: 30 min pre-incubation with survival factor, then 20 h
Description: At least 500 cells were counted per slide and the percentage apoptosis calculated. Apoptosis and loss of membrane integrity was also assessed by flow cytometry using human recombinant annexin-V-FITC (Roche, UK) to measure phosphatidylserine (PS) exposure, in combination with propidium iodide (Sigma). Stock annexin-V-FITC was diluted at 1:500 in annexin-V binding buffer (500 ml Hanks Balanced Salt Solution containing […]) and was added at a volume of 280 μl to 5×10^4 cells, and then incubated on ice for 10 min. 1 μl of PI (stock 1 mg/ml) was added to the samples shortly before analysis using the EPICS XL2 flow cytometer (Beckman Coulter, High Wycombe, UK). Where apoptosis data are presented as annexin-V binding, apoptosis was also confirmed by morphological assessment.
Since CDK inhibitors were able to accelerate apoptosis, the inventors investigated whether these compounds could also reverse the effects of agents known to delay apoptosis through different signaling pathways (Riley, N. A. et al. Anti-inflammatory & Anti-Allergy Agents in Medicinal Chemistry 5, 3-12 (2006)). […] Lipopolysaccharide (LPS) binds to Toll-like receptor (TLR)4, that interacts with CD14 eventually leading to mitogen-activation kinases (MAPK), PI3K and/or NF-κB signaling to inhibit apoptosis. […] Apoptosis was assessed by annexin-V-FITC, and checked by morphology.

[4] = zVAD-fmk 1 μg/Kg i.p. at 4 h intervals
[5] = zVAD-fmk 1 μg/Kg i.p. at 4 h intervals, R-roscovitine 10 mg/Kg
[6] = 10 or 100 mg/Kg i.p., 36 h post-carrageenan

COc1ccc(CNc2nc(N[C@@H](CO)C(C)C)nc3c2ncn3C(C)C)cc1 [NG75, 2-(1R-isopropyl-2-hydroxyethylamino)-6-(4-methoxy-benzylamino)-9-isopropylpurine]
annexin-V/PI positive cell populations (secondary necrosis) (human neutrophils [1]; 20 h treatment): increased number
rate of apoptosis, time course study (human neutrophils [1]; R-roscovitine 20 μM): increased the rate of apoptosis dramatically
annexin V positive cells (human neutrophils [1]; after 8 h of treatment): marked increase
rate of constitutive apoptosis (human neutrophils [1]): significantly increased

COC(=O)C[C@H](NC(=O)[C@H](C)NC(=O)[C@@H](NC(=O)OCc1ccccc1)C(C)C)C(=O)CF (racemic) [zVAD-fmk, z-Val-Ala-DL-Asp-fluoromethylketone]
effect on R-roscovitine induced apoptosis (human neutrophils [1]; zVAD-fmk 100 μM, R-roscovitine 20 μM, 6 h): prevented R-roscovitine induced apoptosis
edema formation compared with saline or vehicle controls [2, 4]: increasing
total inflammatory cell number compared with saline or vehicle controls [2, 4]: increasing
effect on R-roscovitine increase in inflammatory cell apoptosis and macrophages containing apoptotic bodies [2, 5]: inhibited dramatically
effect on R-roscovitine-induced decrease in inflammatory cells and edema formation [2, 5]: prevented

GM-CSF: pro-survival factor (R & D Systems)
effect on fall of Mcl-1 levels in culture (Mcl-1; GM-CSF 50 U/ml): prevented

CC[C@@H](CO)Nc1nc(NCc2ccccc2)c2ncn(C(C)C)c2n1 [S-roscovitine]
rates of apoptosis assessed by annexin V binding (human neutrophils [1]): 75.6±3.3%

CC[C@H](CO)Nc1nc(NCc2ccccc2)c2ncn(C(C)C)c2n1 [R-roscovitine, (R)-2-[{9-(1-methylethyl)-6-[(phenylmethyl)amino]-9H-purin-2-yl]amino}-1-butanol]
rate of apoptosis, time course study (human neutrophils [1]; R-roscovitine 20 μM): increased the rate of apoptosis dramatically
rate of constitutive apoptosis (human neutrophils [1]): significantly increased
rates of apoptosis assessed by annexin V binding (human neutrophils [1]): 75.9±3.5%
effect on GM-CSF mediated up-regulation of Mcl-1 (Mcl-1; R-roscovitine 20 μM plus GM-CSF 50 U/ml, 4 h): inhibits GM-CSF mediated up-regulation of Mcl-1
inhibition of total inflammatory cell number compared with vehicle control ([2]; 10 mg/kg i.p. 24 h after carrageenan, 36 h post-carrageenan): greater than 50%
number of monocytes/macrophages and neutrophils ([2]; 10 mg/kg i.p., 36 h post-carrageenan): reduction
lung inflammation (inflammatory infiltrate in lung sections) ([2]; 100 mg/Kg i.p., 36 h post-carrageenan): dramatically reduced
pleural cavity total cell numbers over seven days ([2]; 100 mg/kg i.p. at 24 h, all time points examined): marked resolution of inflammation
amount of inflammatory cells in pleural cavity ([2]; 100 mg/kg i.p., 36 h post-carrageenan): near baseline levels
IFN-γ in the inflammatory exudate [2, 6]: diminished
IL-6 in the inflammatory exudate [2, 6]: diminished
MCP-1 in the inflammatory exudate [2, 6]: diminished
edema formation (total exudate volume), decrease compared with saline control ([2]; 36 h post-carrageenan): three-fold
inflammatory cell apoptosis and macrophages containing apoptotic bodies in the pleural cavity ([2]; 36 h post-carrageenan): increase
caspase-3 cleavage (caspase-3): results in caspase-3 cleavage
tolerability (tumor; even with high doses of 2 g/kg): well tolerated
tumor size (tumor; systemic administration): specific reduction in tumor size
arthritis as assessed by clinical scores (serum induced arthritis): dramatically resolved quicker
effect on survival signals (dbcAMP, GMCSF, LPS delayed apoptosis) (human neutrophils [3]): clearly is dominant over survival factor mediated effects
